Assay results from ChEMBL document CHEMBL3885881, “DrugMatrix”.

Organism: Rattus norvegicus
Experiment: DrugMatrix - Regimen: Daily Repeat
Type: toxicity, organism-based, Sprague-Dawley
Design: regimen Daily Repeat, gender Male, age 6-8 weeks
Conditions: in vivo, po, route oral GAVAGE, […]; for ABSOLUTE BASOPHIL / ABSOLUTE EOSINOPHIL / ABSOLUTE LYMPHOCYTE / ABSOLUTE MONOCYTE / ABSOLUTE SEGMENTED NEUTROPHIL / BASOPHIL / EOSINOPHIL / ERYTHROCYTE COUNT / HEMATOCRIT / HEMOGLOBIN / LEUKOCYTE COUNT / LYMPHOCYTE / MEAN CORPUSCULAR HEMOGLOBIN / MEAN CORPUSCULAR HEMOGLOBIN CONCENTRATION / MEAN CORPUSCULAR VOLUME / MONOCYTE / NEUTROPHIL / NUCLEATED RED BLOOD CELLS / PLATELET COUNT: tissue Blood; for ALANINE AMINOTRANSFERASE / ALKALINE PHOSPHATASE / ASPARTATE AMINOTRANSFERASE / BLOOD UREA NITROGEN / CARBON DIOXIDE / CHLORIDE / CHOLESTEROL / CREATINE PHOSPHOKINASE / CREATININE / GLUCOSE / LACTATE DEHYDROGENASE / LIPASE / PHOSPHORUS / POTASSIUM / SODIUM / TOTAL BILIRUBIN / TOTAL PROTEIN / URIC ACID: tissue Plasma
[1] = 0 mg/kg, 72 h, dose level Control, time 3 day
[2] = 0 mg/kg, 120 h, dose level Control, time 5 day
[3] = 10 mg/kg, 72 h, dose level Low, time 3 day

With CCOC(=O)C1=C(C)NC(C)=C(C(=O)OC)C1c1cccc([N+](=O)[O-])c1 (stereo not given) [NITRENDIPINE] the “ABSOLUTE BASOPHIL” value [1] was 0 CELLS/uL, the “ABSOLUTE EOSINOPHIL” value [1] was 0 CELLS/uL and the “ABSOLUTE LYMPHOCYTE” value [1] was 9244.83 CELLS/uL. The “ABSOLUTE MONOCYTE” value [1] was 102 CELLS/uL, the “ABSOLUTE SEGMENTED NEUTROPHIL” value [1] was 869.83 CELLS/uL and the BASOPHIL [1] was 0%. The EOSINOPHIL [1] was 0%, the “ERYTHROCYTE COUNT” value [1] was 5.43 x10E6/uL and the HEMATOCRIT [1] was 34.03%. For the same molecule, the HEMOGLOBIN [1] was 13.27 G/DL, the “LEUKOCYTE COUNT” value [1] was 10.22 x10E3/uL and the LYMPHOCYTE [1] was 90.33%. The “MEAN CORPUSCULAR HEMOGLOBIN” value [1] was 24.48 pg, the “MEAN CORPUSCULAR HEMOGLOBIN CONCENTRATION” value [1] was 39.03 G/DL and the “MEAN CORPUSCULAR VOLUME” value [1] was 62.75 fL. For the same molecule, the MONOCYTE [1] was 1%, the NEUTROPHIL [1] was 8.67% and the “NUCLEATED RED BLOOD CELLS” value [1] was 0.17 /100WBC. The “PLATELET COUNT” value [1] was 989 x10E3/uL, the “ALANINE AMINOTRANSFERASE” value [1] was 77 u/L and the “ALKALINE PHOSPHATASE” value [1] was 464.83 u/L. For the same molecule, the “ASPARTATE AMINOTRANSFERASE” value [1] was 89.83 u/L, the “BLOOD UREA NITROGEN” value [1] was 12.17 mg/dL and the “CARBON DIOXIDE” value [1] was 34.17 mmol/L. For the same molecule, the CHLORIDE [1] was 98.33 MEQ/L, the CHOLESTEROL [1] was 75.17 mg/dL and the “CREATINE PHOSPHOKINASE” value [1] was 367.67 u/L. For the same molecule, the CREATININE [1] was 0.16 mg/dL, the GLUCOSE [1] was 142.67 mg/dL and the “LACTATE DEHYDROGENASE” value [1] was 139.33 u/L. For the same molecule, the LIPASE [1] was 9.5 u/L, the PHOSPHORUS [1] was 10.85 mg/dL and the POTASSIUM [1] was 6.38 MEQ/L. The SODIUM [1] was 143.2 MEQ/L, the “TOTAL BILIRUBIN” value [1] was 0.2 mg/dL and the “TOTAL PROTEIN” value [1] was 5.77 G/DL. The “URIC ACID” value [1] was 0.7 mg/dL, the “ABSOLUTE BASOPHIL” value [2] was 0 CELLS/uL and the “ABSOLUTE EOSINOPHIL” value [2] was 0 CELLS/uL. The “ABSOLUTE LYMPHOCYTE” value [2] was 8295.33 CELLS/uL, the “ABSOLUTE MONOCYTE” value [2] was 84.67 CELLS/uL and the “ABSOLUTE SEGMENTED NEUTROPHIL” value [2] was 970 CELLS/uL. The BASOPHIL [2] was 0%, the EOSINOPHIL [2] was 0% and the “ERYTHROCYTE COUNT” value [2] was 5.74 x10E6/uL. For the same molecule, the HEMATOCRIT [2] was 36.22%, the HEMOGLOBIN [2] was 13.85 G/DL and the “LEUKOCYTE COUNT” value [2] was 9.35 x10E3/uL. For the same molecule, the LYMPHOCYTE [2] was 88.67%, the “MEAN CORPUSCULAR HEMOGLOBIN” value [2] was 24.13 pg and the “MEAN CORPUSCULAR HEMOGLOBIN CONCENTRATION” value [2] was 38.25 G/DL. The “MEAN CORPUSCULAR VOLUME” value [2] was 63.08 fL, the MONOCYTE [2] was 1% and the NEUTROPHIL [2] was 10.33%. For the same molecule, the “NUCLEATED RED BLOOD CELLS” value [2] was 0.17 /100WBC, the “PLATELET COUNT” value [2] was 883.83 x10E3/uL and the “ALANINE AMINOTRANSFERASE” value [2] was 64.5 u/L. For the same molecule, the “ALKALINE PHOSPHATASE” value [2] was 425.67 u/L, the “ASPARTATE AMINOTRANSFERASE” value [2] was 88.5 u/L and the “BLOOD UREA NITROGEN” value [2] was 14.17 mg/dL. The “CARBON DIOXIDE” value [2] was 30.5 mmol/L, the CHLORIDE [2] was 100.33 MEQ/L and the CHOLESTEROL [2] was 55.33 mg/dL. For the same molecule, the “CREATINE PHOSPHOKINASE” value [2] was 287.17 u/L, the CREATININE [2] was 0.2 mg/dL and the GLUCOSE [2] was 162.83 mg/dL. For the same molecule, the “LACTATE DEHYDROGENASE” value [2] was 111.33 u/L, the LIPASE [2] was 10.5 u/L and the PHOSPHORUS [2] was 10.32 mg/dL. For the same molecule, the POTASSIUM [2] was 5.13 MEQ/L, the SODIUM [2] was 143.93 MEQ/L and the “TOTAL BILIRUBIN” value [2] was 0.17 mg/dL. The “TOTAL PROTEIN” value [2] was 5.9 G/DL, the “URIC ACID” value [2] was 0.77 mg/dL and the “ABSOLUTE BASOPHIL” value [3] was 0 CELLS/uL. The “ABSOLUTE EOSINOPHIL” value [3] was 0 CELLS/uL, the “ABSOLUTE LYMPHOCYTE” value [3] was 9214.67 CELLS/uL and the “ABSOLUTE MONOCYTE” value [3] was 145.33 CELLS/uL. The “ABSOLUTE SEGMENTED NEUTROPHIL” value [3] was 940 CELLS/uL, the BASOPHIL [3] was 0% and the EOSINOPHIL [3] was 0%. For the same molecule, the “ERYTHROCYTE COUNT” value [3] was 5.43 x10E6/uL, the HEMATOCRIT [3] was 33.93% and the HEMOGLOBIN [3] was 13.03 G/DL. For the same molecule, the “LEUKOCYTE COUNT” value [3] was 10.3 x10E3/uL, the LYMPHOCYTE [3] was 89.33% and the “MEAN CORPUSCULAR HEMOGLOBIN” value [3] was 24.03 pg. For the same molecule, the “MEAN CORPUSCULAR HEMOGLOBIN CONCENTRATION” value [3] was 38.4 G/DL, the “MEAN CORPUSCULAR VOLUME” value [3] was 62.6 fL and the MONOCYTE [3] was 1.33%. The NEUTROPHIL [3] was 9.33%, the “NUCLEATED RED BLOOD CELLS” value [3] was 0 /100WBC and the “PLATELET COUNT” value [3] was 1124 x10E3/uL. The “ALANINE AMINOTRANSFERASE” value [3] was 72 u/L, the “ALKALINE PHOSPHATASE” value [3] was 422 u/L and the “ASPARTATE AMINOTRANSFERASE” value [3] was 86 u/L. The “BLOOD UREA NITROGEN” value [3] was 10.33 mg/dL, the “CARBON DIOXIDE” value [3] was 34.33 mmol/L and the CHLORIDE [3] was 98.67 MEQ/L. For the same molecule, the CHOLESTEROL [3] was 71.67 mg/dL, the “CREATINE PHOSPHOKINASE” value [3] was 319.33 u/L and the CREATININE [3] was 0.11 mg/dL. The GLUCOSE [3] was 145.33 mg/dL, the “LACTATE DEHYDROGENASE” value [3] was 130.67 u/L and the LIPASE [3] was 11.33 u/L. The PHOSPHORUS [3] was 10.8 mg/dL, the POTASSIUM [3] was 6.13 MEQ/L and the SODIUM [3] was 144.4 MEQ/L. For the same molecule, the “TOTAL BILIRUBIN” value [3] was 0.2 mg/dL and the “TOTAL PROTEIN” value [3] was 5.6 G/DL.
